Source: US7118895B2, “Process for producing aglycon by using diglycosidase and flavor-improved food containing the aglycon and converting agent to be used in the process” (Amano Enzyme Inc., priority 2000, dated 2006)

System: Crude diglycosidase
Test: Examination of pH in the conversion into isoflavone aglycons by diglycosidase using soybean materials
Format: biochemical, Penicillium multicolor IAM7153
Settings: for Decomposition efficiency of glycitin family in roasted soy flour / Decomposition efficiency of glycitin family in soymilk: 55° C.
Method: A substrate solution of 450 μL was prepared by suspending 50 mg of each soybean material (roasted soy flour (manufactured by Fuji Shokuryo K.K.), soymilk (manufactured by Gitoh Shokuhin K.K.), defatted soybean (manufactured by Fuji Seiyu K.K.), concentrated soybean protein (manufactured by Fuji Seiyu K.K.)), and adjusting the pH to 2 to 11 with hydrochloric acid or sodium hydroxide. Each enzyme solution of pH 2–11 wherein diglycosidase activity of crude diglycosidase was adjusted to 1.88 AU/mL was added thereto in an amount of 50 μL and the whole was reacted at 55° C. at the total volume of 500 μL. To the reaction mixture was added 700 μL of ethanol after 0, 1, 3, and 6 hours of the reaction. After stirring and ultrasonication, the mixture was subjected to centrifugal separation at 15,000 rpm and 4° C. for 10 minutes. The supernatant was filtered through a filter and the existence of isoflavone glycosides and aglycon isoflavones contained in the reaction mixture was detected by HLPC (Tables 15 to 26).

- Decomposition efficiency of glycitin family in concentrated soybean protein (pH1.6, heat treatment of enzyme: no, reaction time 0 h): 35.9%
- Decomposition efficiency of glycitin family in concentrated soybean protein (pH1.6, heat treatment of enzyme: no, reaction time 1 h): 35.1%
- Decomposition efficiency of glycitin family in concentrated soybean protein (pH1.6, heat treatment of enzyme: no, reaction time 3 h): 33.5%
- Decomposition efficiency of glycitin family in concentrated soybean protein (pH1.6, heat treatment of enzyme: no, reaction time 6 h): 31.8%
- Decomposition efficiency of glycitin family in concentrated soybean protein (pH1.6, heat treatment of enzyme: yes, reaction time 6 h): 30.9%
- Decomposition efficiency of glycitin family in roasted soy flour (pH2, heat treatment of enzyme no, reaction time 0 h): 35.3
- Decomposition efficiency of glycitin family in roasted soy flour (pH2, heat treatment of enzyme no, reaction time 1 h): 34.0
- Decomposition efficiency of glycitin family in roasted soy flour (pH2, heat treatment of enzyme no, reaction time 3 h): 34.2
- Decomposition efficiency of glycitin family in roasted soy flour (pH2, heat treatment of enzyme no, reaction time 6 h): 35.5
- Decomposition efficiency of glycitin family in roasted soy flour (pH2, heat treatment of enzyme yes, reaction time 6 h): 35.2
- Decomposition efficiency of glycitin family in soymilk (pH2.3, heat treatment of enzyme no, reaction time 0 h): not detected
- Decomposition efficiency of glycitin family in soymilk (pH2.3, heat treatment of enzyme no, reaction time 1 h): not detected
- Decomposition efficiency of glycitin family in soymilk (pH2.3, heat treatment of enzyme no, reaction time 3 h): not detected
- Decomposition efficiency of glycitin family in soymilk (pH2.3, heat treatment of enzyme no, reaction time 6 h): not detected
- Decomposition efficiency of glycitin family in soymilk (pH2.3, heat treatment of enzyme yes, reaction time 6 h): not detected
- Decomposition efficiency of glycitin family in defatted soybean (pH2.6, heat treatment of enzyme: no, reaction time 0 h): not detected
- Decomposition efficiency of glycitin family in defatted soybean (pH2.6, heat treatment of enzyme: no, reaction time 1 h): not detected
- Decomposition efficiency of glycitin family in defatted soybean (pH2.6, heat treatment of enzyme: no, reaction time 3 h): not detected
- Decomposition efficiency of glycitin family in defatted soybean (pH2.6, heat treatment of enzyme: no, reaction time 6 h): not detected
- Decomposition efficiency of glycitin family in defatted soybean (pH2.6, heat treatment of enzyme: yes, reaction time 6 h): not detected
- Decomposition efficiency of glycitin family in concentrated soybean protein (pH2.7, heat treatment of enzyme: no, reaction time 0 h): 35.9%
- Decomposition efficiency of glycitin family in concentrated soybean protein (pH2.7, heat treatment of enzyme: no, reaction time 1 h): 36.6%
- Decomposition efficiency of glycitin family in concentrated soybean protein (pH2.7, heat treatment of enzyme: no, reaction time 3 h): 36.5%
- Decomposition efficiency of glycitin family in concentrated soybean protein (pH2.7, heat treatment of enzyme: no, reaction time 6 h): 36.6%
- Decomposition efficiency of glycitin family in concentrated soybean protein (pH2.7, heat treatment of enzyme: yes, reaction time 6 h): 35.4%
- Decomposition efficiency of glycitin family in roasted soy flour (pH3, heat treatment of enzyme no, reaction time 0 h): 35.3
- Decomposition efficiency of glycitin family in roasted soy flour (pH3, heat treatment of enzyme no, reaction time 1 h): 38.7
- Decomposition efficiency of glycitin family in roasted soy flour (pH3, heat treatment of enzyme no, reaction time 3 h): 30.8
- Decomposition efficiency of glycitin family in roasted soy flour (pH3, heat treatment of enzyme no, reaction time 6 h): 31.7
- Decomposition efficiency of glycitin family in roasted soy flour (pH3, heat treatment of enzyme yes, reaction time 6 h): 35.6
- Decomposition efficiency of glycitin family in defatted soybean (pH3.4, heat treatment of enzyme: no, reaction time 0 h): not detected
- Decomposition efficiency of glycitin family in defatted soybean (pH3.4, heat treatment of enzyme: no, reaction time 1 h): not detected
- Decomposition efficiency of glycitin family in defatted soybean (pH3.4, heat treatment of enzyme: no, reaction time 3 h): not detected
- Decomposition efficiency of glycitin family in defatted soybean (pH3.4, heat treatment of enzyme: no, reaction time 6 h): not detected
- Decomposition efficiency of glycitin family in defatted soybean (pH3.4, heat treatment of enzyme: yes, reaction time 6 h): not detected
- Decomposition efficiency of glycitin family in soymilk (pH3.5, heat treatment of enzyme no, reaction time 0 h): not detected
- Decomposition efficiency of glycitin family in soymilk (pH3.5, heat treatment of enzyme no, reaction time 1 h): not detected
- Decomposition efficiency of glycitin family in soymilk (pH3.5, heat treatment of enzyme no, reaction time 3 h): not detected
- Decomposition efficiency of glycitin family in soymilk (pH3.5, heat treatment of enzyme no, reaction time 6 h): not detected
- Decomposition efficiency of glycitin family in soymilk (pH3.5, heat treatment of enzyme yes, reaction time 6 h): not detected
- Decomposition efficiency of glycitin family in concentrated soybean protein (pH3.7, heat treatment of enzyme: no, reaction time 0 h): 36.1%
- Decomposition efficiency of glycitin family in concentrated soybean protein (pH3.7, heat treatment of enzyme: no, reaction time 1 h): 32.9%
- Decomposition efficiency of glycitin family in concentrated soybean protein (pH3.7, heat treatment of enzyme: no, reaction time 3 h): 26.1%
- Decomposition efficiency of glycitin family in concentrated soybean protein (pH3.7, heat treatment of enzyme: no, reaction time 6 h): 22.1%
- Decomposition efficiency of glycitin family in concentrated soybean protein (pH3.7, heat treatment of enzyme: yes, reaction time 6 h): 35.9%
- Decomposition efficiency of glycitin family in roasted soy flour (pH4, heat treatment of enzyme no, reaction time 0 h): 34.8
- Decomposition efficiency of glycitin family in roasted soy flour (pH4, heat treatment of enzyme no, reaction time 1 h): 18.8
- Decomposition efficiency of glycitin family in roasted soy flour (pH4, heat treatment of enzyme no, reaction time 3 h): 8.2
- Decomposition efficiency of glycitin family in roasted soy flour (pH4, heat treatment of enzyme no, reaction time 6 h): not detected
- Decomposition efficiency of glycitin family in roasted soy flour (pH4, heat treatment of enzyme yes, reaction time 6 h): 35.9
- Decomposition efficiency of glycitin family in soymilk (pH4.8, heat treatment of enzyme no, reaction time 0 h): not detected
- Decomposition efficiency of glycitin family in soymilk (pH4.8, heat treatment of enzyme no, reaction time 1 h): not detected
- Decomposition efficiency of glycitin family in soymilk (pH4.8, heat treatment of enzyme no, reaction time 3 h): not detected
- Decomposition efficiency of glycitin family in soymilk (pH4.8, heat treatment of enzyme no, reaction time 6 h): not detected
- Decomposition efficiency of glycitin family in soymilk (pH4.8, heat treatment of enzyme yes, reaction time 6 h): not detected
- Decomposition efficiency of glycitin family in defatted soybean (pH4.8, heat treatment of enzyme: no, reaction time 0 h): not detected
- Decomposition efficiency of glycitin family in defatted soybean (pH4.8, heat treatment of enzyme: no, reaction time 1 h): not detected
- Decomposition efficiency of glycitin family in defatted soybean (pH4.8, heat treatment of enzyme: no, reaction time 3 h): not detected
- Decomposition efficiency of glycitin family in defatted soybean (pH4.8, heat treatment of enzyme: no, reaction time 6 h): not detected
- Decomposition efficiency of glycitin family in defatted soybean (pH4.8, heat treatment of enzyme: yes, reaction time 6 h): not detected
SMILES: COc1cc2c(=O)c(-c3ccc(O)cc3)coc2cc1O[C@@H]1O[C@H](COC(C)=O)[C@@H](O)[C@H](O)[C@H]1O [acetylglycitin, 6″-O-acetylglycitin]
